Results: patent publication US7056655B2, “Methods for monitoring and guiding therapeutic suppression of parathyroid hormone in renal patients having secondary hyperparathyroidism” (Scantibodies Laboratory, Inc., priority 2001, dated 2006)

How the values were obtained:
Format in all cases: in vivo
[1] = test system: PTH agonist; assay: Clinical trial in ESRD patients: PTH agonist assay (Scantibodies) on blood samples; conditions: for PTH agonist decrease: median values; for PTH agonist: median of ninety patients, 5.5 μg intravenously every three days
Method: (§1) A clinical trial was held for ninety ESRD patients. Each patient had been receiving vitamin D suppressant therapy in accordance with the manufacturer's guidelines. Each patient was removed from the therapy for a washout period of four weeks, and this was confirmed by a rise in PTH measurements after removal of the therapeutic. PTH maxacalcitol (made by Chugai Pharmaceutical Corporation of Tokyo, Japan) suppressant therapy was started after the washout at a constant administration of 5.5 μg intravenously every three days. Blood samples were obtained from each patient after the washout (week 0), six weeks after therapy restart (week 6), and twelve weeks after therapy restart (week 12). The samples were assayed for PTH agonist levels and PTH antagonist levels using the PTH agonist assay and total PTH assay made by Scantibodies Laboratory, Inc. The samples were assayed for bone specific alkaline phosphatase using a commercially available immunoassay from Hybritech, Inc. of San Diego, Calif.
(§2) The results of the assays for the ninety patients are shown in FIG. 2 and the following table as median values: […]

[2] = test system: PTH antagonist; assay: Clinical trial in ESRD patients: PTH antagonist level (total PTH minus PTH agonist); conditions: for PTH antagonist decrease: 6 weeks versus 0 weeks; for PTH antagonist decrease / PTH antagonist increase: median values; for PTH antagonist increase: 12 weeks versus 6 weeks; for PTH antagonist: median of ninety patients, 5.5 μg intravenously every three days
Excerpt: PTH antagonist levels should be measured using an assay that either directly detects PTH antagonist (but not PTH agonist) or indirectly through a total PTH measurement that measures the sum of the PTH agonist and PTH antagonist. An indirect measurement subtracts the PTH agonist value from the total PTH value, deriving the PTH antagonist value. Thus, one should use a total PTH assay that is designed to have essentially 100% cross-reactivity with PTH antagonist and PTH agonist. For example, Scantibodies Laboratory Total Intact PTH Assay or Scantibodies Laboratory Intact PTH Assay are appropriate assays.
as §1, §2

[3] = test system: Total PTH; assay: Clinical trial in ESRD patients: total PTH assay (Scantibodies) on blood samples; conditions: for Total PTH decrease: median values; for Total PTH: median of ninety patients, 5.5 μg intravenously every three days
Method: as §1, §2

[4] = test system: bone specific alkaline phosphatase; assay: Clinical trial in ESRD patients: bone specific alkaline phosphatase immunoassay (Hybritech); conditions: for Alkaline Phosphatase decrease: median values; for Alkaline Phosphatase: median of ninety patients, 5.5 μg intravenously every three days
Method: as §1, §2

[5] = 6 weeks versus 0 weeks, listed as PTH suppressant
[6] = 12 weeks versus 6 weeks, listed as PTH suppressant

With `C=C1/C(=C\C=C2/CCC[C@]3(C)[C@@H]([C@H](C)OCCC(C)(C)O)CC[C@@H]23)C[C@@H](O)C[C@@H]1O` [maxacalcitol] the PTH agonist decrease ([1]; 6 weeks versus 0 weeks) was “(41% decrease)”, the PTH agonist decrease [1, 5] was 41% and the PTH agonist decrease ([1]; 12 weeks versus 6 weeks) was “(8% decrease)”. The PTH agonist decrease [1, 6] was 8%, the PTH agonist ([1]; 6 weeks (0 weeks: 609)) was 361 pg/mL and the PTH agonist ([1]; 12 weeks (0 weeks: 609)) was 331 pg/mL. For the same compound, the PTH antagonist decrease [2] was “(42% decrease)”, the PTH antagonist decrease ([2]; listed as PTH suppressant) was 42% and the PTH antagonist increase [2] was “(21% increase)”. For the same compound, the PTH antagonist increase ([2]; listed as PTH suppressant) was 21%, the PTH antagonist ([2]; 6 weeks (0 weeks: 276)) was 160 pg/mL and the PTH antagonist ([2]; 12 weeks (0 weeks: 276)) was 194 pg/mL. The “Total PTH decrease” value ([3]; 6 weeks versus 0 weeks) was “(41% decrease)”, the “Total PTH decrease” value [3, 5] was 41% and the “Total PTH decrease” value ([3]; 12 weeks versus 6 weeks) was “(1% decrease)”. The “Total PTH decrease” value [3, 6] was 0.8%, the “Total PTH” value ([3]; 6 weeks (0 weeks: 886)) was 531 pg/mL and the “Total PTH” value ([3]; 12 weeks (0 weeks: 886)) was 525 pg/mL. The “Alkaline Phosphatase decrease” value ([4]; 6 weeks versus 0 weeks) was “(13% decrease)”, the “Alkaline Phosphatase decrease” value ([4]; 12 weeks versus 6 weeks) was “(16% decrease)” and the “Alkaline Phosphatase” value ([4]; 6 weeks (0 weeks: 396)) was 344 U/ml. The “Alkaline Phosphatase” value ([4]; 12 weeks (0 weeks: 396)) was 290 U/ml.
